From patent US20160355457A1, “Solid Forms Comprising(-)-O-Desmethylvenlafaxine And Uses Thereof” (Sunovion Pharmaceuticals Inc., priority 2007, published 2016)

Columns and labels:
[1] = Moisture sorption/desorption (dynamic vapor sorption); format: physicochemical
Procedure: Moisture sorption/desorption data were collected on a VTI SGA-100 Vapor Sorption Analyzer. Sorption and desorption data were collected over a range of 5% to 95% relative humidity (RH) at 10% RH intervals under a nitrogen purge. For some samples, a step at 90% RH was added to the sorption cycle. Samples were not dried prior to analysis. Equilibrium criteria used for analysis were less than 0.0100% weight change in 5 minutes, with a maximum equilibration time of 3 hours if the weight criterion was not met. Data were not corrected for the initial moisture content of the samples. NaCl and PVP were used as calibration standards.

[2] = Stability properties of the solid form; format: physicochemical
[3] = decreased from 95% to 5% relative humidity
[4] = increased from 5% to 95% relative humidity

SMILES	loss in mass on decreasing relative humidity (dynamic vapor sorption) [1, 3]	gain in mass on increasing relative humidity (dynamic vapor sorption) [1, 4]	other results
CN(C)C[C@@H](c1ccc(O)cc1)C1(O)CCCCC1.Cl [Form E, monohydrochloride salt of (−)-O-desmethylvenlafaxine]	about 5.8%	about 4.7%	–
CN(C)C[C@@H](c1ccc(O)cc1)C1(O)CCCCC1.Cl [Form A, (−)-1-[2-(dimethylamino)-1-(4-hydroxyphenyl)ethyl]cyclohexanol hydrochloride salt]	–	–	loss in mass on decreasing relative humidity (dynamic vapor sorption) ([1]; decreased from 90% to 5% relative humidity): about 1%; gain in mass on increasing relative humidity (dynamic vapor sorption) ([1]; increased from 5% to 90% relative humidity, hydrochloride salt): < 1%; stability properties [2]: excellent stability properties
CN(C)C[C@@H](c1ccc(O)cc1)C1(O)CCCCC1.Cl [Form G, monohydrochloride salt of (−)-O-desmethylvenlafaxine]	about 22%	about 23%	gain in mass on increasing relative humidity (dynamic vapor sorption) ([1]; increased from 5% to 90% relative humidity): about 3%
CN(C)C[C@@H](c1ccc(O)cc1)C1(O)CCCCC1.Cl [Form F, monohydrochloride salt of (−)-O-desmethylvenlafaxine]	about 33%	about 32%	–
CN(C)C[C@@H](c1ccc(O)cc1)C1(O)CCCCC1.Cl [amorphous form, (−)-1-[2-(dimethylamino)-1-(4-hydroxyphenyl)ethyl]cyclohexanol monohydrochloride salt]	–	–	loss in mass on decreasing relative humidity (dynamic vapor sorption) ([1]; decreased from 95% to 5% relative humidity, monohydrochloride salt): about 32%; gain in mass on increasing relative humidity (dynamic vapor sorption) ([1]; increased from 5% to 95% relative humidity, monohydrochloride salt): about 36%

Continued, in another order:

loss in mass on decreasing relative humidity (dynamic vapor sorption) [1, 3]	gain in mass on increasing relative humidity (dynamic vapor sorption) [1, 4]	SMILES	other results
about 26%	about 25%	CN(C)C[C@@H](c1ccc(O)cc1)C1(O)CCCCC1.Cl [Form B, monohydrochloride salt of (−)-O-desmethylvenlafaxine]	–
about 27%	about 27%	CN(C)C[C@@H](c1ccc(O)cc1)C1(O)CCCCC1.Cl [Form C, monohydrochloride salt of (−)-O-desmethylvenlafaxine]	–
